# Test results taken from PubChem BioAssay (NCI).
#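 Protocol summary: plate cells (96-well), add compound at 5 concentrations, incubate 48 h, interpolate endpoints linearly. The concentration for full growth arrest is given as TGI.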
# Columns and labels:
# Assay in all cases: growth of human tumour cells (NCI), 48 h
# MDA-N = system: MDA-N
# KM20L2 colon = system: KM20L2 colon
# PC-3 prostate = system: PC-3 prostate
# MCF7 breast = system: MCF7 breast
# T-47D breast = system: T-47D breast
# RXF-631 renal = system: RXF-631 renal
structure (smiles),measurement,setting,value
O=[N+]([O-])c1ccc(C2CC(c3ccccc3Cl)=Nc3ccccc3S2=O)cc1 (stereo unspecified),TGI,MDA-N,21.8 µM
same,TGI,KM20L2 colon,7.04 µM
same,TGI,PC-3 prostate,17.3 µM
same,TGI,MCF7 breast,7.92 µM
same,TGI,T-47D breast,44.2 µM
same,TGI,RXF-631 renal,21.5 µM
